# Like-named read-outs stand apart in the source and are kept apart here. *1 amine or outer side, *2 acyl side, *3 side chain or, on linkers, in order; H or OH if unused. Where a SMILES comes first, the peptide text is derived from it. Bridges are numbered along the chain shown (N, C = ends). Roman numbers before positions name the chains, in order. [ ]: non-standard residue; d: D form. The star is where a group is joined. Hexamethylenediamine = C(CCCN[*:2])CCN[*:1]; Dip = N[C@H](C(=O)O)C(c1ccccc1)c1ccccc1; Chg = N[C@H](C(=O)O)C1CCCCC1; NMeA = CN[C@@H](C)C(=O)O; Cbz = O=C(OCc1ccccc1)*; CH2F = FC*
# Assays:
# [1] = system: Primary human lung fibroblasts (MRC5 cells); test: Death ligand-induced cell death in MRC5 cells, Sytox green, Incucyte; assay type: cell-based; conditions: for inhibition of TRAIL-induced cell death: MRC5 cells, FIG. 5
# [2] = system: Human pancreatic ductal epithelial cells (HPDECs); test: Death ligand-induced cell death in HPDECs, Sytox green, Incucyte; assay type: cell-based
# [3] = system: Tnfr1KOHoil-1E-KO mice; test: Cell death-driven lethal skin inflammation (dermatitis) model, Tnfr1KO Hoil-1E-KO mice; assay type: in vivo; conditions: treated once inflammation has been initiated (from 30 days onwards)
# [4] = system: reovirus 1/L (R1/L); conditions: non-therapeutic inhibition; BOOP model and ARDS model; cited from earlier work
# [5] = system: Lung endothelial cells (LECs); assay type: cell-based, mouse; conditions: for sensitivity of cells to death ligand-induced cell death: 1 μg/ml Death Ligand, with zVAD
# [6] = system: MRC5 cells; test: Western blot of cell lysates of IFN-treated MRC5 cells; assay type: cell-based, human; conditions: IFNs for 24 h
# Description: FIG. 6: MRC5 cells were treated with the indicated IFNs for 24 h before cells were lysed and cell lysates were analysed for presence of the indicated proteins by western blotting.
# [7] = system: NIH3T3 cells; test: Death ligand-induced cell death in NIH3T3 cells, Sytox green, Incucyte; assay type: cell-based, mouse; conditions: in presence of zVAD-fmk
molecule,measurement,setting,value
CN[C@@H](C)C(=O)N[C@H](C(=O)N1CCC[C@H]1C(=O)N[C@H](C(=O)NCCCCCCNC(=O)[C@@H](NC(=O)[C@@H]1CCCN1C(=O)[C@@H](NC(=O)[C@H](C)NC)C1CCCCC1)C(c1ccccc1)c1ccccc1)C(c1ccccc1)c1ccccc1)C1CCCCC1 [BV6] (I: H-[NMeA][Chg]P[Dip] / II: H-[NMeA][Chg]P[Dip]; linker I:C-II:C via Hexamethylenediamine),"toxicity in combination with TRAIL, IFN-gamma alone or IFN-gamma and TRAIL",[1],enhanced toxicity
same,sensitisation of cells by IAP antagonist alone,"[1]; BV6 alone, FIG. 9",did not sensitise these cells
"CN1C(=O)NC(Cc2c[nH]c3c(Cl)cccc23)C1=O (stereo not shown) [Nec-1s, reference compound]",inhibition of cell death induced by TRAIL in combination with IFN-gamma,[2],"delayed the death of HPDECs induced by TRAIL in combination with IFN-gamma, it could not prevent it"
same,inhibition of TRAIL-induced cell death,[1],could not be blocked
C[C@]12C=CC(=O)C=C1CC[C@H]1[C@@H]3C[C@@H](O)[C@](O)(C(=O)CO)[C@@]3(C)C[C@H](O)[C@@]12F [Triamcinolone],"ongoing skin inflammation / skin lesions, therapeutic treatment",[3],insufficient to achieve a meaningful therapeutic effect
CC[C@H](C)[C@H](NC(=O)OCc1ccccc1)C(=O)N[C@@H](CCC(=O)OC)C(=O)N[C@H](C(=O)N[C@@H](CC(=O)OC)C(=O)CF)[C@@H](C)O [zIETD-fmk] (Cbz-IE(OMe)TD(OMe)-CH2F),"aberrant cell death, inflammation and fibrosis in lung tissue",[4],"reduces aberrant cell death, inflammation and fibrosis in lung tissue"
"COC(=O)C[C@H](NC(=O)[C@H](C)NC(=O)[C@@H](NC(=O)OCc1ccccc1)C(C)C)C(=O)CF [zVAD-fmk, reference compound] (Cbz-Val-Ala-Asp(OMe)-CH2F)",inhibition of cell death induced by TRAIL in combination with IFN-gamma,[2]; HPDECs,"delayed the death of HPDECs induced by TRAIL in combination with IFN-gamma, it could not prevent it"
same,"inhibition of cell death induced by the different combinations (BV6, TRAIL, IFN-gamma)",[1]; FIG. 9,completely inhibited
same,inhibition of TRAIL-induced cell death,[1],completely blocked
same,dependence of observed cell death on caspase inhibition,[5]; all death ligands,required inhibition of caspases by zVAD
IFN-gamma: type II IFN,FN14 expression (western blot),[6],upregulation of FN14
same,MLKL expression (western blot),[6],strongly upregulated
same,effect of IFN pre-treatment on sensitivity to TRAIL-induced cell death,"[2]; IFN overnight, then TRAIL 100 ng/ml",did not increase their sensitivity to cell death induction by TRAIL
same,effect of IFN pre-treatment on kinetics of TRAIL-induced cell death,[2]; compared to TRAIL alone,accelerated TRAIL-induced cell death
same,sensitisation to death induction by TRAIL or FasL,"[7]; IFN pretreatment 24 hr, 1 μg/ml Death Ligand",significantly sensitised them to death induction by TRAIL or FasL
same,cell death induced by IFN alone,[7]; without death ligand,sufficient to significantly induce cell death
same,effect of IFN pre-treatment on sensitivity to TRAIL-induced cell death,"[1]; IFN overnight, then TRAIL 1 μg/ml",did not increase their sensitivity to cell death induction by TRAIL
same,effect of IFN pre-treatment on sensitivity to death ligand-induced cell death,[5]; IFN overnight,sensitised these cells to FasL-mediated death
"TRAIL: Death Ligand, also known as Apo2L (protein, UniProt P50591 1-281, looked up) Tumor necrosis factor ligand …: MAMMEVQGGPSLGQTCVLIVIFTVLLQSLCVAVTYVYFTNELKQMQDKYSKSGIACFLKEDDSYWDPNDEESMNSPCWQVKWQLRQLVRKMILRTSEETISTVQEKQQNISPLVRERGPQRVAAHITGTRGRSNTLSSPNSKNEKALGRKINSWESSRSGHSFLSNLHLRNGELVIHEKGFYYIYSQTYFRFQEEIKENTKNDKQMVQYIYKYTSYPDPILLMKSARNSCWSKDAEYGLYSIYQGGIFELKENDRIFVSVTNEHLIDMDHEASFFGAFLVG",sensitivity of cells to death ligand-induced cell death,[2]; 100 ng/ml Death Ligand,exquisitely sensitive to TRAIL-induced apoptosis
same,sensitivity of cells to death ligand-induced cell death,[1]; 1 μg/ml Death Ligand,exquisitely sensitive to TRAIL-induced apoptosis
same,sensitivity of cells to death ligand-induced cell death,[5],highly sensitive to cell death induction
"FasL: Death Ligand, Fas ligand (protein, UniProt P48023 130-281, looked up) Tumor necrosis factor ligand …: QIGHPSPPPEKKELRKVAHLTGKSNSRSMPLEWEDTYGIVLLSGVKYKKGGLVINETGLYFVYSKVYFRGQSCNNLPLSHKVYMRNSKYPQDLVMMEGKMMSYCTTGQMWARSSYLGAVFNLTSADHLYVNVSELSLVNFEESQTFFGLYKL",sensitivity of cells to death ligand-induced cell death,[5],relatively insensitive

# From patent US20250011445A1 (priority 2020, published 2025)
